By IC50 is commonly meant the concentration that gives 50% inhibition.

Assay [1] relates to ME 180. Briefly: Incorporation of 3H-thymidine, ME 180. Format: cell-based. The settings on record: Homo sapiens, ME-180; 96 hours incubation, then 6 hours 3H-thymidine; read-out: TdR IC50 ME 180.
Assay [2] concerns AML-193. Briefly: Incorporation of 3H-thymidine, AML-193. The settings on record: Homo sapiens, read-out: TdR IC50 AML-193 (nM).
The subject of assay [3] is RPMI 8226. Briefly: Incorporation of 3H-thymidine, RPMI 8226. Format: cell-based. The following applies: Homo sapiens, 96 hours incubation, then 6 hours 3H-thymidine, read-out: TdR IC50 RPMI 8226.
Assay [4] deals with T1, RXRβ (Mus musculus, UniProt P28704).
T1 sequence (P28704 1-520): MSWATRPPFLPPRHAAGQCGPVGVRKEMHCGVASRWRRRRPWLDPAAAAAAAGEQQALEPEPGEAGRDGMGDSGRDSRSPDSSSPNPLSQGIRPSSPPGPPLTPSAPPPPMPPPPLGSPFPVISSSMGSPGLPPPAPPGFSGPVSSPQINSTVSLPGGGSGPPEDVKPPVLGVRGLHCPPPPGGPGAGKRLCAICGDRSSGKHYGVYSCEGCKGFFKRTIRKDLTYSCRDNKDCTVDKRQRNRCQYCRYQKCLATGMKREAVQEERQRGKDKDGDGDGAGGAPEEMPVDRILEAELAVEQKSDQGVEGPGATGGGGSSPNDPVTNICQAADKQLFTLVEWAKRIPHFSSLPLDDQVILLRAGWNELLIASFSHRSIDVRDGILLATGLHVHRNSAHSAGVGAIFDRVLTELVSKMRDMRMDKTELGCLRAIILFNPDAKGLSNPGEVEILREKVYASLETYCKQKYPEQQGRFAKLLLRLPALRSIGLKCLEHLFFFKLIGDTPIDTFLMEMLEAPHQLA
In words: Co-transfection assay, RXRβ agonist activity. The assay is classed as cell-based. The settings on record: CV-1 cells, luciferase reporter, read-out: RXRβ Pot. In general terms: A reporter such as luciferase makes a cellular process visible.

`CC(/C=C/CC1(c2ccc3c(c2)C(C)(C)CCC3(C)C)CC1)=C\C(=O)O` [Compound 101, (2E, 4E)-6-[1-(5,5,8,8-Tetramethyl-5,6,7,8-tetrahydronaphtha-len-2-yl)cyclopropanyl]-3-methyl hexadienoic acid]: the values for the IC50 in assay [1], in assay [2] and in assay [3] were 0.9 nM, under 0.1 nM and under 0.1 nM, respectively. Besides, the EC50 in assay [4] turned out to be 6 nM.

For `CC(/C=C/CC1(c2cc(C(C)(C)C)cc3c2CCC3(C)C)CC1)=C\C(=O)O` [Compound 107, (2E, 4E)-6-[1-(6-t-butyl-1,1-dimethyl-indan-4-yl)-cyclopropyl]-3-methyl hexadienoic acid], the EC50 in assay [4] was found to be 22 nM.

The values are drawn from patent US6005007A, “Retinoids, methods for their production and use” (priority 1997, dated 1999).
